Active and inactive are the calls of the source.
Assays:
[1] = A cytotoxicity screen of small molecule inhibitors of the PhoP region in Salmonella typhi identified in the primary screen. [Related pubchem assays: 1850, 1864, 1985 ]; format: functional
Estrogen receptor beta [2] = biological target: T1, Estrogen receptor beta (Homo sapiens, UniProt Q92731); experiment: ERβ–SRC-3 coactivator interaction inhibitors, confirmation, orthogonal assay, biochemical, ELISA, streptavidin-HRP readout (AID 1060)
T1 sequence (Q92731 whole entry): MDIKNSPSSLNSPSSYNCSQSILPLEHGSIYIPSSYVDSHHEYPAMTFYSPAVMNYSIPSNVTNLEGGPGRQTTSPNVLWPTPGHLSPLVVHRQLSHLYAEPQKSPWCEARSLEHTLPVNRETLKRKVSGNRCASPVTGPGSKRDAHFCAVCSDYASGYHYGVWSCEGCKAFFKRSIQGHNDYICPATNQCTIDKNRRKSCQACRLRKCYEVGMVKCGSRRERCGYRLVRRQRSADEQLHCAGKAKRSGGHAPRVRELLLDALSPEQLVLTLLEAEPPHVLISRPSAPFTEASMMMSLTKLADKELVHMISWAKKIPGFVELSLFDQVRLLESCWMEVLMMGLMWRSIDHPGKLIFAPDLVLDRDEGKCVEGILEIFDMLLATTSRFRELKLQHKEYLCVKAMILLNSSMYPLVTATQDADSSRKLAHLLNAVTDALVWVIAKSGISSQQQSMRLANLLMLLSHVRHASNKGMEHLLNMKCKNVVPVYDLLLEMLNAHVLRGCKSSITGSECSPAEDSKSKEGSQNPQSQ

[3] = Counterscreen for IDE inhibitors: Luminescence-based cell-based high throughput dose response assay to identify compounds that are cytotoxic to HEK cells. [Related pubchem assays: 434962 (Primary screen (IDE inhibitors in singlicate)), 449730 (Counterscreen (Cytotoxicity in triplicate)), 435028 (Confirmation (IDE inhibitors in triplicate)) …; format: functional; conditions: HEK293
Insulin-degrading enzyme = biological target: T2, Insulin-degrading enzyme (Homo sapiens, UniProt P14735); experiment: Dose Response: Fluorescence polarization-based cell-based high throughput dose response assay for inhibitors of insulin-degrading enzyme (IDE). [Related pubchem assays: 434962 (Primary screen (IDE inhibitors in singlicate)), 449730 (Counterscreen (Cytotoxicity in triplicate)), 435028 (Confirmation (IDE inhibitors in triplicate)), 434984 (Summary …; format: functional
T2 sequence (P14735 whole entry): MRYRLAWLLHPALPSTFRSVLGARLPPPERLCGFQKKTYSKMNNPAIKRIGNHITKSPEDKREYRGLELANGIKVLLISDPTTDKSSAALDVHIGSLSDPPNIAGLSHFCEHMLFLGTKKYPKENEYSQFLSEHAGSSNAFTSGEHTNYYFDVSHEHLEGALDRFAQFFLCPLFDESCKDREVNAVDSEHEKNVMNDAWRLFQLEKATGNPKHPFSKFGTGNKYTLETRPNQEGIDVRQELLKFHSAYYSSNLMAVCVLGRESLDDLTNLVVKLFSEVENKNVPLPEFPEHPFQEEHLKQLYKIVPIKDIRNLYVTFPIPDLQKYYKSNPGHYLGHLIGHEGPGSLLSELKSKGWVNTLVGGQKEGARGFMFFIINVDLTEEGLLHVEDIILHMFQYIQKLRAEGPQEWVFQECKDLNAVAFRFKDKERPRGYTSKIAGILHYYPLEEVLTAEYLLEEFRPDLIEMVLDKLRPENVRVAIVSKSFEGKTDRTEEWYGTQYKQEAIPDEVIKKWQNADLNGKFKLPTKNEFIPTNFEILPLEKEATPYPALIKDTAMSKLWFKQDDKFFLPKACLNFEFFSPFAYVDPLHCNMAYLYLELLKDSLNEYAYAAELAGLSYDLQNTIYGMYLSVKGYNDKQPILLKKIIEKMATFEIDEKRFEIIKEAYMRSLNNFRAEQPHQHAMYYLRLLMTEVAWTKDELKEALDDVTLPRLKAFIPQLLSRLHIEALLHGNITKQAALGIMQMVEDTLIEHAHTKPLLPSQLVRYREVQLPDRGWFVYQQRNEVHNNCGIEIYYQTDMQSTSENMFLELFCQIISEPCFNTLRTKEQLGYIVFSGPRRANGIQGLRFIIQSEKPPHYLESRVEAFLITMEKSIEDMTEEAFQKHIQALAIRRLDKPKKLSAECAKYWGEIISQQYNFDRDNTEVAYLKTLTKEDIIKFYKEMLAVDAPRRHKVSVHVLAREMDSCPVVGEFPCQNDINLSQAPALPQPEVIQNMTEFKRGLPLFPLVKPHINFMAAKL

Prothrombin = Prothrombin (Homo sapiens, UniProt P00734); experiment: Thrombin 1536 HTS Dose Response Confirmation. [Related pubchem assays: 1046 (Thrombin 1536 HTS; hits were confirmed in this assay)]; format: functional
Estrogen receptor beta [4] = biological target: T1, Estrogen receptor beta
[5] = biological target: T3, Ubiquitin carboxyl-terminal hydrolase BAP1 (Homo sapiens, UniProt Q92560); experiment: BAP1 deubiquitinase inhibitors, dose response, biochemical (AID 714); format: functional
T3 sequence (Q92560 whole entry): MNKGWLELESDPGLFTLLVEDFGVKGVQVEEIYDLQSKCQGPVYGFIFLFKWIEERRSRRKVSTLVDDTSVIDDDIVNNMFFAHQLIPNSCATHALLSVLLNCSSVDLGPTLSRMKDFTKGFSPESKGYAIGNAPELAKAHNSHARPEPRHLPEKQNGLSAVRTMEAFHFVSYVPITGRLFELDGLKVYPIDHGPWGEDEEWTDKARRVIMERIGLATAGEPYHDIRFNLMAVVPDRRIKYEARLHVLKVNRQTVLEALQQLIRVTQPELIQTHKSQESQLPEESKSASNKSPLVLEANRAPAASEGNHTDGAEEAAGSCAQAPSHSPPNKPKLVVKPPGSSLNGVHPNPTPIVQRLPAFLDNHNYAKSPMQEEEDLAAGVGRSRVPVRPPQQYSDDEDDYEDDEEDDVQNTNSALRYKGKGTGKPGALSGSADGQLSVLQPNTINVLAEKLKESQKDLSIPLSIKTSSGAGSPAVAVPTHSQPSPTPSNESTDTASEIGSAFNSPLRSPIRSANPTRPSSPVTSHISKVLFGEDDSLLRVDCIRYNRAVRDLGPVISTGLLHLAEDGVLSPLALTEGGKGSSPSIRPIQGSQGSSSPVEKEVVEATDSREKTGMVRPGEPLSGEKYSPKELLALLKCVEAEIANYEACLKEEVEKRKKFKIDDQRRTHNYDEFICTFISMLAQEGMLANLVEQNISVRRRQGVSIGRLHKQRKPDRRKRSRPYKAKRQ

[6] = biological target: G-protein coupled receptor 55 (Homo sapiens, UniProt Q9Y2T6); experiment: GPR55 agonists via beta-arrestin recruitment, primary screen, imaging, U2OS cells, beta-arrestin-GFP redistribution (AID 1961); format: functional
G-protein coupled receptor 55, sequence (Q9Y2T6 whole entry): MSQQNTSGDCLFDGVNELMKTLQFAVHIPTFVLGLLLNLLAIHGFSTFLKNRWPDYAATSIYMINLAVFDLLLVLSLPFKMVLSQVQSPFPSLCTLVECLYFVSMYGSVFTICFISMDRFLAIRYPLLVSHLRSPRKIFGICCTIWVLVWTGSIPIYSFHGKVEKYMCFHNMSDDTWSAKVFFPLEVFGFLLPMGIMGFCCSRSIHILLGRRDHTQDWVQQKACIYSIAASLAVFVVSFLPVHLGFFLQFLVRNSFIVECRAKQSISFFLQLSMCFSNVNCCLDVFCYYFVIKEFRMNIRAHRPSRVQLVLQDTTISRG

Large T antigen = Large T antigen (Simian virus 40, UniProt P03070); format: functional, Betapolyomavirus macacae;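 note: Confirmatory-stage PubChem screen for compounds that inhibit SV40 T antigen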
Large T antigen, sequence (P03070 whole entry): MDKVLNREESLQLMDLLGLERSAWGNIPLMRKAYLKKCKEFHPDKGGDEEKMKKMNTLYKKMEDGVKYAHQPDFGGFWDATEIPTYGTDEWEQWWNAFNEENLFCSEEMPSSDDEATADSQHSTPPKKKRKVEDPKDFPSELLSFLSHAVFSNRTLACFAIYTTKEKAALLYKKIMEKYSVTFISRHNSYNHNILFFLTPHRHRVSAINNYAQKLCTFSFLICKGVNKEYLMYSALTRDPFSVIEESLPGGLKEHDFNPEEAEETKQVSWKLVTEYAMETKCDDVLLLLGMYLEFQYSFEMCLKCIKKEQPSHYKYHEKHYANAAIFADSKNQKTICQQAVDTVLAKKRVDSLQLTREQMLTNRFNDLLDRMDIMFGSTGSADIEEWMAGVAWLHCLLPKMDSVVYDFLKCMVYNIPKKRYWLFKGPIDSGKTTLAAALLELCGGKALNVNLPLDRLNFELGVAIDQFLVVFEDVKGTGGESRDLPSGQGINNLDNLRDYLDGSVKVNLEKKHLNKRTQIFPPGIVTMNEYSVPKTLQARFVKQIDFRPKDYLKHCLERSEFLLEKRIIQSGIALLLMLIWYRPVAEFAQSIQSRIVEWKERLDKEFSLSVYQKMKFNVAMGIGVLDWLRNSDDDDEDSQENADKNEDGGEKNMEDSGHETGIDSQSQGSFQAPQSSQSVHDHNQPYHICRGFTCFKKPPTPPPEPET

[7] = biological target: Induced myeloid leukemia cell differentiation protein Mcl-1 (Homo sapiens, UniProt Q07820); format: functional
Induced myeloid leukemia cell differentiation protein Mcl-1, sequence (Q07820 whole entry): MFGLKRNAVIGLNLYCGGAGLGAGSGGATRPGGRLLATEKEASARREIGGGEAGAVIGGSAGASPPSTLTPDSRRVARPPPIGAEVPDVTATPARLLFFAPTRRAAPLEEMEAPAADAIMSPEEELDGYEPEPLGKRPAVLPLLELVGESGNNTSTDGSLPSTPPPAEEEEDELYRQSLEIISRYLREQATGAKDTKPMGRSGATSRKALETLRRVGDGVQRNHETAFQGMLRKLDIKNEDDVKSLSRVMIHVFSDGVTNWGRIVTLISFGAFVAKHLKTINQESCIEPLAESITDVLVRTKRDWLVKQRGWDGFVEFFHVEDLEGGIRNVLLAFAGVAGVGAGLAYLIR

[8] = biological target: Eukaryotic translation initiation factor 4E (Mus musculus, UniProt P63073); experiment: eIF4E–eIF4G protein interaction inhibitors, dose response, biochemical, TR-FRET (AID 855); format: functional;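 note: potency for disrupting eIF4E binding to eIF4GI seen as loss of FRET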
Eukaryotic translation initiation factor 4E, sequence (P63073 whole entry, the tested form may be a part): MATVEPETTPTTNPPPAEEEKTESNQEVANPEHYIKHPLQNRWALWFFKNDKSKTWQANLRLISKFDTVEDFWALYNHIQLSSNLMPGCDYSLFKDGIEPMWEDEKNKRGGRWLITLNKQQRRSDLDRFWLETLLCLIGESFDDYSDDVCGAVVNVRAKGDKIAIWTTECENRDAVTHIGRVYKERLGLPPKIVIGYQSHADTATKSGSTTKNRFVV

[9] = biological target: T4, Carboxy-terminal domain RNA polymerase II polypeptide A small phosphatase 1 (Homo sapiens, UniProt Q9GZU7); experiment: inhibitors of CTDSP1, concentration-response testing, biochemical assay, absorbance-based, actives from ultra-high-throughput screening (AID 540297); format: functional
T4 sequence (Q9GZU7 whole entry): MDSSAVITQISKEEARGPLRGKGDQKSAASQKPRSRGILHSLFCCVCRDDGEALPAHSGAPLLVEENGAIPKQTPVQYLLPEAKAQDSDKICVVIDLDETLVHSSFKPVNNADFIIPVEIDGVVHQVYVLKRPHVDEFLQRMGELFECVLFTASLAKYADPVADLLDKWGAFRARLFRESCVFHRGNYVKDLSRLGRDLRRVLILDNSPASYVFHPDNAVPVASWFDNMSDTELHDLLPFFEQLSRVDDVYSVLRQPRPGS

[10] = test system: Streptococcus sp. 'group A'; experiment: growth inhibition of control SK(-) GAS strain, dose response, counter-screen for streptokinase expression inhibitor project, luminescence, kanamycin, BacTiterGlo, confirmation (AID 1900); format: functional, organism-based
Streptokinase A = biological target: T5, Streptokinase A (Streptococcus pyogenes serotype M1, UniProt P10520); experiment: S. pyogenes streptokinase expression inhibitors, potency, dose response, plasminogen activation absorbance, OD405 (AID 1914); format: functional, Streptococcus pyogenes M1 GAS;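 note: secreted streptokinase activity via plasminogen activation per viability signal from cell pellet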
T5 sequence (P10520 whole entry): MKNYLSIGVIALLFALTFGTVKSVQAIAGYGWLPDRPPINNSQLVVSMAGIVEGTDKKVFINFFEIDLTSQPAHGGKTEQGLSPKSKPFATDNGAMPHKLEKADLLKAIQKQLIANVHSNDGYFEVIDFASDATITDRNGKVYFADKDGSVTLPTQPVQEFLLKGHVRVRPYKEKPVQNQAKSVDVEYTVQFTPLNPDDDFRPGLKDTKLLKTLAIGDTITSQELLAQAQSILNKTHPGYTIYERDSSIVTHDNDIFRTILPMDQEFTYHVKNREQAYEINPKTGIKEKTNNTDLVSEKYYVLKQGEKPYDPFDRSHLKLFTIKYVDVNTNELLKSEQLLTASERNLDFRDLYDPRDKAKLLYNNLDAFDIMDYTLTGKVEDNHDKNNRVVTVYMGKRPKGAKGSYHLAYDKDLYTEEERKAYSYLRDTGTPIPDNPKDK

Streptococcus = experiment: Group A Streptococcus viability loss, dose response, counter-screen for streptokinase expression inhibitor project, luminescence, BacTiterGlo (AID 1915); format: functional, organism-based;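 note: potency for reduction of bacterial viability or growth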
Mucolipin-3 = biological target: T6, Mucolipin-3 (Homo sapiens, UniProt Q8TDD5); experiment: Dose response cell-based high-throughput screening assay for agonists of the transient receptor potential channel ML3 (TRPML3). [Related pubchem assays: 1526, 1424, 1448 ]; format: functional
T6 sequence (Q8TDD5 whole entry): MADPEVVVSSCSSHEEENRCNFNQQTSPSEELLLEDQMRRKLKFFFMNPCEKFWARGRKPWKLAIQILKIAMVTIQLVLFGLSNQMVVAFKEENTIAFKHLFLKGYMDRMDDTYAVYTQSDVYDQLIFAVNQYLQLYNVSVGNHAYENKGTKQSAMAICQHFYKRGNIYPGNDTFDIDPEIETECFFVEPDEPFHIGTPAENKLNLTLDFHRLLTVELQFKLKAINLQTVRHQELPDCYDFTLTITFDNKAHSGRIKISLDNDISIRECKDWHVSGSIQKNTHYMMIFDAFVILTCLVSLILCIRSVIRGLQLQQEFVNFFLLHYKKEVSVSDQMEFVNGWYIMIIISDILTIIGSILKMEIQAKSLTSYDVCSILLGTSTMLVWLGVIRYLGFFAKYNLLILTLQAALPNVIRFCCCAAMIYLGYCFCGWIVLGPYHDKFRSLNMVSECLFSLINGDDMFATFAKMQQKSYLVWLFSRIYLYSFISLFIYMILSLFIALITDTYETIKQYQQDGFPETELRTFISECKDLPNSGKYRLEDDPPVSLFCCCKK

Ion channel NompC = Ion channel NompC (Danio rerio, UniProt Q7T1G6); experiment: Fluorescence counterscreen assay for TRPML3 agonists: dose response cell-based high-throughput screening assay to identify agonists of the transient receptor potential channel N1 (TRPN1). [Related pubchem assays: 1526, 1424, 1448 ]; format: functional
Ion channel NompC, sequence (Q7T1G6 whole entry): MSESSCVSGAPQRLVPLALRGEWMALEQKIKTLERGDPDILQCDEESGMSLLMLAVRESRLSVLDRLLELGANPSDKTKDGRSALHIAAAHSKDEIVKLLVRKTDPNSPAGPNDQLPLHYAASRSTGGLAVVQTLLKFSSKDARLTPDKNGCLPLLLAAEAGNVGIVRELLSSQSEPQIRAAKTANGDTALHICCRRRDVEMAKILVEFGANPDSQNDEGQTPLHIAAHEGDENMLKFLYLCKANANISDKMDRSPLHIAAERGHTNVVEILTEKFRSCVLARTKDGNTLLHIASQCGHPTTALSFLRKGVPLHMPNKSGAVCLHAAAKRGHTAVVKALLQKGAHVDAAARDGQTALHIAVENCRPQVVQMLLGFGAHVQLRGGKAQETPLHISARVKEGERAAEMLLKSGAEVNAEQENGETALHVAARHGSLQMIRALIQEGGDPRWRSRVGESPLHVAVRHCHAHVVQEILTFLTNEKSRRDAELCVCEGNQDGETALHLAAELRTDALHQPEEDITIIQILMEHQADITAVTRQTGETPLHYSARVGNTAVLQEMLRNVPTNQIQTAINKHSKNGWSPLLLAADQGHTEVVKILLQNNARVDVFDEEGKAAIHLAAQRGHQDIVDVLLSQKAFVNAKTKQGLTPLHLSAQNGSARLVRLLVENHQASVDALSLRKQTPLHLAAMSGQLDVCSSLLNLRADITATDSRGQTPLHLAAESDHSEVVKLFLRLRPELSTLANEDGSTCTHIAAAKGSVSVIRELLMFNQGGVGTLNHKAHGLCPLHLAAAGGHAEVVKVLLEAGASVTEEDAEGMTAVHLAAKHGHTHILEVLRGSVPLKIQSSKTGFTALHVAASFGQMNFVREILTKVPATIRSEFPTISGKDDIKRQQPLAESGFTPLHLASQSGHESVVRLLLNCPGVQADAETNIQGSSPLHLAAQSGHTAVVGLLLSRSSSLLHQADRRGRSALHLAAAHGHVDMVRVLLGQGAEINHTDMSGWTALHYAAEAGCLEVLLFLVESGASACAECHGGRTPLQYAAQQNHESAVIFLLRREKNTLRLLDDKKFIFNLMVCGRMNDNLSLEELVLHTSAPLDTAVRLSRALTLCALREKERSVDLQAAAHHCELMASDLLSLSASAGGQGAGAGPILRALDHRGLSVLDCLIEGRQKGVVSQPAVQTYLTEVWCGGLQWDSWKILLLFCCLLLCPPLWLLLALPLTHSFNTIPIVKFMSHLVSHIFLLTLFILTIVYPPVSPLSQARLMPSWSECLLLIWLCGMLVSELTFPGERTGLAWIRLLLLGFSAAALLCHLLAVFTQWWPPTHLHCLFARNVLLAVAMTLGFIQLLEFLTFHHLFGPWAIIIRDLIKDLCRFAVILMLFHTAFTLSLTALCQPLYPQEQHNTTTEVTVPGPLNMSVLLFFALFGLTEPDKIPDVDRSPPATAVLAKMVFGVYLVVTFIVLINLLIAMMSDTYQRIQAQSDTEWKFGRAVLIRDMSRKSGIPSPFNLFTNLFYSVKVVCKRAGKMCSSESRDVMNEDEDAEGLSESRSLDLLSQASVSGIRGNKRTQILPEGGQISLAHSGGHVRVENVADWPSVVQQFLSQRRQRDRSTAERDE

INS1 = experiment: beta cell apoptosis inhibitors, cytokine rescue, dose response, luminescence, retest (AID 449756); format: functional, cell-based; conditions: Rattus norvegicus;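 note: cell death triggered by IL-1 beta plus TNF-alpha plus IFN-gamma mixture; protective hits raise ATP signal compared with cytokine alone wells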

COc1ccc(C(=O)C2CCN(CC(=O)Nc3cc(C)cc(C)c3)CC2)cc1
EC50 [1]: > 50 µM (active)

O=C1c2ccccc2-c2onc3c(Oc4ccccc4)cc(O)c1c23
IC50 (Estrogen receptor beta [2]): 37 µM (not active)

COc1ccc2[nH]c3c(NCc4ccco4)ncnc3c2c1
IC50 [3]: 19.3 µM (not active)
IC50 (Insulin-degrading enzyme): 21.2 µM (not active)

CC1CCc2[nH]nc(C(=O)O)c2C1 (stereo not given)
IC50 (Prothrombin): > 50 µM (not active)

O=c1c2cc(N3CCOCC3)ccc2[nH]c(=S)n1Cc1ccco1
IC50 (Estrogen receptor beta [4]): > 50 µM (not active)
IC50 (Estrogen receptor beta [2]): 6.02 µM (not active)

CCOC(=O)c1cnc(SCC(=O)Nc2sc(C)c(C)c2C#N)nc1N
IC50 [5]: 18.7 µM (active)

O=C(NCc1ccco1)c1cc2nc(-c3ccc4c(c3)OCO4)cc(C(F)(F)F)n2n1
IC50 [5]: 20.4 µM (active)
EC50 [6]: > 32 µM (inactive)

O=c1/c(=C\c2cc([N+](=O)[O-])cc([N+](=O)[O-])c2O)sc2nc3ccccc3n12
IC50 [3]: > 55.7 µM (not active)
IC50 (Large T antigen): 52.8 µM (active)
IC50 (Insulin-degrading enzyme): > 55.9 µM (not active)
IC50 [7]: 1.54 µM (active)
IC50 [8]: 50 µM (inactive)

O=C(c1ccc([N+](=O)[O-])cc1)n1nc(-c2ccccc2)nc1NCc1ccc(F)cc1
IC50 (Prothrombin): 0.464 µM (active)

Oc1c(Br)cc(Br)cc1CNc1ccccn1
EC50 [1]: > 50 µM (active)

COc1ccc2c(=O)c3c(=O)n(Cc4ccco4)c(-c4ccco4)nc3oc2c1
IC50 (Estrogen receptor beta [4]): > 50 µM (not active)
IC50 [9]: 4.9 µM (active)

COC(=O)c1c(NC(=O)Cc2cccs2)sc2c1CCCC2
EC50 [10]: 20.6 µM (active)
EC50 (Streptokinase A): 17.7 µM (active)
IC50 (Estrogen receptor beta [4]): 4.51 µM (active)
IC50 (Estrogen receptor beta [2]): 103 µM (not active)
IC50 [7]: 3.35 µM (active)
EC50 (Streptococcus): > 150 µM (not active)

COc1ccc(C(=O)c2sc3nc(-c4ccccc4)ccc3c2N)cc1
IC50 [3]: 25.4 µM (not active)
IC50 (Insulin-degrading enzyme): > 55.9 µM (not active)

CCCOc1ccc(S(=O)(=O)n2cc(F)c(=O)[nH]c2=O)cc1
EC50 [1]: > 50 µM (active)

CCOC(=O)c1c(NC(=O)c2cccs2)sc(C)c1CC
IC50 [5]: 30.4 µM (not active)

COc1ccc(N2C(=O)CSC2c2cccc(OC)c2OC)cc1 (stereo not given)
IC50 (Prothrombin): > 50 µM (not active)

CC1=CC(C)(C)N(C(=O)CSc2nnc(-c3ccc(C)cc3)o2)c2ccc(C)cc21
EC50 (Mucolipin-3): 7.81 µM (active)
EC50 (Ion channel NompC): > 29.9 µM (not active)
AC50 (INS1): 14.8 µM (active)

O=S(=O)(c1ccc2ccccc2c1)N1CCCCCC1
EC50 (Mucolipin-3): 1.71 µM (active)
EC50 (Ion channel NompC): > 29.9 µM (not active)

From ChEMBL document CHEMBL1201862, “PubChem BioAssay data set” (2004)
